Ends that are not written are not given here.
What was measured:
[1] = system: E. coli ATCC strain 25922; experiment: Bacterial growth inhibition assay, aliquots spotted onto a bacterial lawn; type: cell-based, Escherichia coli; settings: purified recombinant peptide at 0.4 ug/mL; half-strength trypticase soy broth agar with 50 mM sodium fluoride
Description: Small aliquots of recombinant MSI-556 and other HPLC fractions from the CNBr digest of MBP-MSI-556 fusion protein were spotted onto a lawn of E. coli ATCC strain 25922 grown on a half-strength trypticase soy broth agar plate containing 50 mM sodium fluoride.

[2] = system: reference strains Staphylococcus aureus ATCC 29213, Escherichia coli ATCC 25922, and Pseudomonas aeruginosa ATCC 27853; experiment: Antimicrobial susceptibility assay as in Example 1, organism not specified per result; type: cell-based
Description: Antibacterial susceptibility testing was performed using a microdilution broth assay according to the guidelines of the National Committee for Clinical Laboratory Standards (NCCLS) Document M7-A2 (NCCLS, 1990). For preparation of peptide stock solutions, the peptide powder as an acetate salt was weighed on an analytical balance and transferred to a polypropylene tube. Stock solutions were prepared at a concentration of 1.024 mg/mL (or, in the case of natural polyphemusin, 1.00 mg/mL) by dissolving the powder in autoclaved (121° C., 20 psi, 20 minutes) deionized water. […]
The bacteria used in the antimicrobial susceptibility testing are the quality control reference strains Staphylococcus aureus ATCC 29213, Escherichia coli ATCC 25922, and Pseudomonas aeruginosa ATCC 27853. Inoculum for each reference strain was prepared by taking a sample of bacteria from a 16-20 hour plate culture and inoculating into 5 mL of MHB (BBL® catalog number 95834) to an absorbance reading of approximately 0.02 at 600 nm (A600) on a Beckman DU®-64 spectrophotometer. The culture was incubated at 35°-37° C. with shaking in a New Brunswick incubator shaker (Model G25) and the growth monitored spectrophotometrically until it reached A600 of approximately 0.6; this absorbance represented approximately 1×10^8 colony-forming units per milliliter (CFUs/mL). […]
This value was determined using the unaided eye. […]

[3] = system: Pseudomonas aeruginosa ATCC 27853; experiment: Microdilution broth antibacterial susceptibility assay (NCCLS M7-A2), MIC; type: cell-based; settings: lowest concentration completely inhibiting growth; MHB, 16-20 hours, 35-37 C; tested in duplicate
Description: (§1) Antibacterial susceptibility testing was performed using a microdilution broth assay according to the guidelines of the National Committee for Clinical Laboratory Standards (NCCLS) Document M7-A2 (NCCLS, 1990). For preparation of peptide stock solutions, the peptide powder as an acetate salt was weighed on an analytical balance and transferred to a polypropylene tube. Stock solutions were prepared at a concentration of 1.024 mg/mL (or, in the case of natural polyphemusin, 1.00 mg/mL) by dissolving the powder in autoclaved (121° C., 20 psi, 20 minutes) deionized water. The peptide solution was used immediately, stored for up to ten days at 4° C., or stored longterm at -70° C. in 1 mL aliquotes in polypropylene cryovials. Mueller-Hinton broth (MHB)(BBL® catalog number 11443) was used in microtiter plates for diluting peptide stock solutions and for diluting each bacterial inoculum. MHB 5 mL prepared tubes (BBL® catalog number 95834) were used to culture an overnight plate of bacteria to the logarithmic phase of growth for inoculating the microtiter plates.
(§2) The bacteria used in the antimicrobial susceptibility testing are the quality control reference strains Staphylococcus aureus ATCC 29213, Escherichia coli ATCC 25922, and Pseudomonas aeruginosa ATCC 27853. Inoculum for each reference strain was prepared by taking a sample of bacteria from a 16-20 hour plate culture and inoculating into 5 mL of MHB (BBL® catalog number 95834) to an absorbance reading of approximately 0.02 at 600 nm (A600) on a Beckman DU®-64 spectrophotometer. The culture was incubated at 35°-37° C. with shaking in a New Brunswick incubator shaker (Model G25) and the growth monitored spectrophotometrically until it reached A600 of approximately 0.6; this absorbance represented approximately 1×10^8 colony-forming units per milliliter (CFUs/mL).
(§3) The culture was then diluted to approximately 1×10^6 CFUs/mL in autoclaved MHB (BBL® catalog number 11443) to produce the parent inoculum. A sample of the parent inoculating culture was diluted in 3 mM phosphate buffer (pH 7.2) through a series of 1:10 dilutions and the 10^-4 and 10^-5 dilutions were plated, incubated overnight at 35°-37° C., and counted the next day to verify inoculum density. Microtiter plates (Corning manufacturer number 2585096) were prepared with the use of a Beckman Biomek® 1000 automated laboratory workstation in combination with manual techniques. The microtiter plate was filled with diluent broth using the Biomek® 1000 instrument. Peptide stock solution was manually added to the top drug well of the microtiter plate using a Rainin Pipetman®, Model P-200. The peptide was serially diluted in twofold dilutions using the Biomek® 1000 instrument. One hundred microliters of the standardized bacterial inoculum was added to every well of the microtiter plates (except the blanks) using an Eppendorf Repeater® Model 4780 pipet equipped with an Eppendorf 5 mL combitip (catalog number 22 26 130-4). All peptides were tested in duplicate. In addition to the test peptide, three standard peptides (Magainin 2, MSI-63, and MSI-98) and a non-treated growth control were included to validate the assay. The final concentrations of peptide solution in the microtiter wells ranged from 0.25 ug/mL to 256 ug/mL. The final concentration of bacteria in the microtiter wells was 1-5×10^5 CFUs/mL. The final solution volume in each well was 200 uL. The microtiter plates were incubated overnight (16-20 hours) at 35°-37° C. after preparation in a Precision mechanical convection oven incubator Model 30M.
(§4) This value was determined using the unaided eye. In addition, for a permanent record, the absorbance at 630 nm was read on a Dynatech MR5000 Microplate Reader, Version 2.7, and a printed record was generated on an Epson LX800 dot-matrix printer.

[4] = system: Escherichia coli ATCC 25922; experiment: as above; type: cell-based; settings: lowest concentration completely inhibiting growth; MHB, 16-20 hours, 35-37 C; tested in duplicate
Description: as §1, §2, §3, §4

[5] = system: Staphylococcus aureus ATCC 29213; experiment: as above; type: cell-based; settings: lowest concentration completely inhibiting growth; MHB, 16-20 hours, 35-37 C; tested in duplicate
Description: as §1, §2, §3, §4

| Substance | Bacterial lawn growth inhibition as judged visually [1] | Spectrum of antibacterial activity (summary of Table I) ([2]; unamidated peptides, conclusion from MIC values) | Minimum Inhibitory Concentration, Test Organism: Pseudo. aeruginosa [3] | Minimum Inhibitory Concentration, Test Organism: E. coli [4] | Minimum Inhibitory Concentration, Test Organism: Staph. aureus [5] | Bioactivity in antimicrobial susceptibility assay ([2]; HPLC-purified recombinant peptide, without reformation of the two disulfide bridges) |
| --- | --- | --- | --- | --- | --- | --- |
| NH2 --GIGKFLKKAKKFGKAGVKILKKG--OH [MSI-556] | significant antimicrobial activity | broadly active against both gram-negative and gram-positive human pathogenic bacteria | 4 µg/mL | 4 to 16 µg/mL | 16 µg/mL | – |
| GIGKFLKKAKKFGKAFVKILKK-NH2 [MSI-78] | – | – | 4 to 8 µg/mL | 8 µg/mL | 8 to 16 µg/mL | – |
| NH2 --RRWCFRVCYRGFCYRKCRG--OH (H-RRWCFRVCYRGFCYRKCRG-OH; cysteine pairing not given here) [Lim1] | – | – | – | – | – | bioactive |
| GIGKFLHSAKKFGKAFVGEIMNS [Native Magainin 2, reference compound] | – | – | 256 µg/mL | 64 to 128 µg/mL | 256 µg/mL | – |

— patent US5589364A, “Recombinant production of biologically active peptides and proteins” (priority 1994, dated 1996)
